test system: test plant species; assay: Post-emergent herbicidal activity test (greenhouse, foliar spray, visual growth reduction); format: in vivo; conditions: post-emergence, 336 h, ALOMY: blackgrass (Alopecurus myosuroides), 140 g ai/ha, 14 days after application, read-out: Visual Growth Reduction (%) 14 Days After Application, ALOMY
Procedure: Post-emergent Test: Seeds or nutlets of the desired test plant species were planted in Sun Gro Metro-Mix® 360 planting mixture, which typically has a pH of 6.0 to 6.8 and an organic matter content of about 30 percent, in plastic pots with a surface area of 64 square centimeters. In some aspects, to ensure good germination and healthy plants, a fungicide treatment and/or other chemical or physical treatment was applied. The plants were grown for 7-21 d in a greenhouse with an approximate 15 h photoperiod which was maintained at 23-29° C. during the day and 22-28° C. during the night. Nutrients and water were added on a regular basis and supplemental lighting was provided with overhead metal halide 1000-Watt lamps as necessary. Plants were used for testing when they reached the first or second true leaf stage. A weighed amount, determined by the highest rate to be tested, of each test compound was placed in a 25 mL glass vial and was dissolved in 4 mL of a 97:3 v/v mixture of acetone and DMSO to obtain concentrated stock solutions. […] The concentrated stock solutions obtained were diluted with 20 mL of an aqueous mixture containing acetone, water, isopropyl alcohol, DMSO, […] crop oil concentrate, and X-77 surfactant in a 48.5:39:10:1.5:1.0:0.02 v/v ratio to obtain spray solutions containing the application rate. Compound requirements are based upon a 12 mL application volume at a rate of 187 liters per hectare (L/ha). Formulated compounds were applied to the plant material with an overhead Mandel track sprayer equipped with […] nozzles calibrated to deliver 187 L/ha over an application area of 0.64 square meters at a spray height of 18 inches (43 cm) above the average plant canopy height. Control plants were sprayed in the same manner with the solvent blank. The treated plants and control plants were placed in a greenhouse as described above and watered by subirrigation to prevent wash-off of the test compounds. After 14 d, the condition of the test plants as compared with that of the nontreated and control plants was determined visually and scored on a scale of 0 to 100 percent where 0 corresponds to no injury and 100 corresponds to complete control. In the reporting of the results, Table A: Percent Growth Reduction Conversion Table was used.

Row | Compound | pest or weed control at 140 g/ha
1 | COC(=O)c1nc(-c2ccc(S(C)(=O)=O)cc2)c(F)cc1Cl [F169, Methyl 3-chloro-5-fluoro-6-(4-(methylsulfonyl)phenyl)picolinate] | 0 to 29%
2 | O=C(O)c1nc(-c2ccc(SC(F)(F)F)cc2Cl)c(F)cc1Cl [F131, 3-Chloro-6-(2-chloro-4-((trifluoromethyl)thio)phenyl)-5-fluoropicolinic acid] | 45 to 59%

same assay, conditions: post-emergence, 336 h, AMARE: redroot pigweed (Amaranthus retroflexus), 140 g ai/ha, 14 days after application, read-out: Visual Growth Reduction (%) 14 Days After Application, AMARE

Row | Compound | pest or weed control at 140 g/ha
3 | COC(=O)c1nc(-c2ccc(S(C)(=O)=O)cc2)c(F)cc1Cl [F169, Methyl 3-chloro-5-fluoro-6-(4-(methylsulfonyl)phenyl)picolinate] | 30 to 44%
4 | O=C(O)c1nc(-c2ccc(SC(F)(F)F)cc2Cl)c(F)cc1Cl [F131, 3-Chloro-6-(2-chloro-4-((trifluoromethyl)thio)phenyl)-5-fluoropicolinic acid] | 95 to 100%

same assay, conditions: post-emergence, 336 h, AVEFA: wild oat (Avena fatua), 140 g ai/ha, 14 days after application, read-out: Visual Growth Reduction (%) 14 Days After Application, AVEFA

Row | Compound | pest or weed control at 140 g/ha
5 | COC(=O)c1nc(-c2ccc(S(C)(=O)=O)cc2)c(F)cc1Cl [F169, Methyl 3-chloro-5-fluoro-6-(4-(methylsulfonyl)phenyl)picolinate] | 0 to 29%
6 | O=C(O)c1nc(-c2ccc(SC(F)(F)F)cc2Cl)c(F)cc1Cl [F131, 3-Chloro-6-(2-chloro-4-((trifluoromethyl)thio)phenyl)-5-fluoropicolinic acid] | 75 to 84%

same assay, conditions: post-emergence, 336 h, CHEAL: lambsquarters (Chenopodium album), 140 g ai/ha, 14 days after application, read-out: Visual Growth Reduction (%) 14 Days After Application, CHEAL

Row | Compound | pest or weed control at 140 g/ha
7 | COC(=O)c1nc(-c2ccc(S(C)(=O)=O)cc2)c(F)cc1Cl [F169, Methyl 3-chloro-5-fluoro-6-(4-(methylsulfonyl)phenyl)picolinate] | 30 to 44%
8 | O=C(O)c1nc(-c2ccc(SC(F)(F)F)cc2Cl)c(F)cc1Cl [F131, 3-Chloro-6-(2-chloro-4-((trifluoromethyl)thio)phenyl)-5-fluoropicolinic acid] | 95 to 100%

same assay, conditions: post-emergence, 336 h, CIRAR: canada thistle (Cirsium arvense), 140 g ai/ha, 14 days after application, read-out: Visual Growth Reduction (%) 14 Days After Application, CIRAR

Row | Compound | pest or weed control at 140 g/ha
9 | COC(=O)c1nc(-c2ccc(S(C)(=O)=O)cc2)c(F)cc1Cl [F169, Methyl 3-chloro-5-fluoro-6-(4-(methylsulfonyl)phenyl)picolinate] | 0 to 29%
10 | O=C(O)c1nc(-c2ccc(SC(F)(F)F)cc2Cl)c(F)cc1Cl [F131, 3-Chloro-6-(2-chloro-4-((trifluoromethyl)thio)phenyl)-5-fluoropicolinic acid] | 95 to 100%

same assay, conditions: post-emergence, 336 h, CYPES: yellow nutsedge (Cyperus esculentus), 140 g ai/ha, 14 days after application, read-out: Visual Growth Reduction (%) 14 Days After Application, CYPES

Row | Compound | pest or weed control at 140 g/ha
11 | COC(=O)c1nc(-c2ccc(S(C)(=O)=O)cc2)c(F)cc1Cl [F169, Methyl 3-chloro-5-fluoro-6-(4-(methylsulfonyl)phenyl)picolinate] | 0 to 29%
12 | O=C(O)c1nc(-c2ccc(SC(F)(F)F)cc2Cl)c(F)cc1Cl [F131, 3-Chloro-6-(2-chloro-4-((trifluoromethyl)thio)phenyl)-5-fluoropicolinic acid] | 0 to 29%

same assay, conditions: post-emergence, 336 h, DIGSA: crabgrass (Digitaria sanguinalis), 140 g ai/ha, 14 days after application, read-out: Visual Growth Reduction (%) 14 Days After Application, DIGSA

Row | Compound | pest or weed control at 140 g/ha
13 | COC(=O)c1nc(-c2ccc(S(C)(=O)=O)cc2)c(F)cc1Cl [F169, Methyl 3-chloro-5-fluoro-6-(4-(methylsulfonyl)phenyl)picolinate] | 30 to 44%
14 | O=C(O)c1nc(-c2ccc(SC(F)(F)F)cc2Cl)c(F)cc1Cl [F131, 3-Chloro-6-(2-chloro-4-((trifluoromethyl)thio)phenyl)-5-fluoropicolinic acid] | 95 to 100%

same assay, conditions: post-emergence, 336 h, ECHCG: barnyardgrass (Echinochloa crus-galli), 140 g ai/ha, 14 days after application, read-out: Visual Growth Reduction (%) 14 Days After Application, ECHCG

Row | Compound | pest or weed control at 140 g/ha
15 | COC(=O)c1nc(-c2ccc(S(C)(=O)=O)cc2)c(F)cc1Cl [F169, Methyl 3-chloro-5-fluoro-6-(4-(methylsulfonyl)phenyl)picolinate] | 45 to 59%
16 | O=C(O)c1nc(-c2ccc(SC(F)(F)F)cc2Cl)c(F)cc1Cl [F131, 3-Chloro-6-(2-chloro-4-((trifluoromethyl)thio)phenyl)-5-fluoropicolinic acid] | 60 to 74%

same assay, conditions: post-emergence, 336 h, IPOHE: ivy-leaf morning glory (Ipomoea hederacea), 140 g ai/ha, 14 days after application, read-out: Visual Growth Reduction (%) 14 Days After Application, IPOHE

Row | Compound | pest or weed control at 140 g/ha
17 | COC(=O)c1nc(-c2ccc(S(C)(=O)=O)cc2)c(F)cc1Cl [F169, Methyl 3-chloro-5-fluoro-6-(4-(methylsulfonyl)phenyl)picolinate] | 60 to 74%
18 | O=C(O)c1nc(-c2ccc(SC(F)(F)F)cc2Cl)c(F)cc1Cl [F131, 3-Chloro-6-(2-chloro-4-((trifluoromethyl)thio)phenyl)-5-fluoropicolinic acid] | 95 to 100%

same assay, conditions: post-emergence, 336 h, KCHSC: kochia (Bassia scoparia), 140 g ai/ha, 14 days after application, read-out: Visual Growth Reduction (%) 14 Days After Application, KCHSC

Row | Compound | pest or weed control at 140 g/ha
19 | COC(=O)c1nc(-c2ccc(S(C)(=O)=O)cc2)c(F)cc1Cl [F169, Methyl 3-chloro-5-fluoro-6-(4-(methylsulfonyl)phenyl)picolinate] | 30 to 44%
20 | O=C(O)c1nc(-c2ccc(SC(F)(F)F)cc2Cl)c(F)cc1Cl [F131, 3-Chloro-6-(2-chloro-4-((trifluoromethyl)thio)phenyl)-5-fluoropicolinic acid] | 95 to 100%

same assay, conditions: post-emergence, 336 h, ORYSA: rice (Oryza sativa), 140 g ai/ha, 14 days after application, read-out: Visual Growth Reduction (%) 14 Days After Application, ORYSA

Row | Compound | pest or weed control at 140 g/ha
21 | COC(=O)c1nc(-c2ccc(S(C)(=O)=O)cc2)c(F)cc1Cl [F169, Methyl 3-chloro-5-fluoro-6-(4-(methylsulfonyl)phenyl)picolinate] | 0 to 29%
22 | O=C(O)c1nc(-c2ccc(SC(F)(F)F)cc2Cl)c(F)cc1Cl [F131, 3-Chloro-6-(2-chloro-4-((trifluoromethyl)thio)phenyl)-5-fluoropicolinic acid] | 30 to 44%

same assay, conditions: post-emergence, 336 h, SETFA: giant foxtail (Setaria faberi), 140 g ai/ha, 14 days after application, read-out: Visual Growth Reduction (%) 14 Days After Application, SETFA

Row | Compound | pest or weed control at 140 g/ha
23 | COC(=O)c1nc(-c2ccc(S(C)(=O)=O)cc2)c(F)cc1Cl [F169, Methyl 3-chloro-5-fluoro-6-(4-(methylsulfonyl)phenyl)picolinate] | 60 to 74%
24 | O=C(O)c1nc(-c2ccc(SC(F)(F)F)cc2Cl)c(F)cc1Cl [F131, 3-Chloro-6-(2-chloro-4-((trifluoromethyl)thio)phenyl)-5-fluoropicolinic acid] | 85 to 94%

same assay, conditions: post-emergence, 336 h, SORVU: grain sorghum (Sorghum vulgare), 140 g ai/ha, 14 days after application, read-out: Visual Growth Reduction (%) 14 Days After Application, SORVU

Row | Compound | pest or weed control at 140 g/ha
25 | COC(=O)c1nc(-c2ccc(S(C)(=O)=O)cc2)c(F)cc1Cl [F169, Methyl 3-chloro-5-fluoro-6-(4-(methylsulfonyl)phenyl)picolinate] | 60 to 74%
26 | O=C(O)c1nc(-c2ccc(SC(F)(F)F)cc2Cl)c(F)cc1Cl [F131, 3-Chloro-6-(2-chloro-4-((trifluoromethyl)thio)phenyl)-5-fluoropicolinic acid] | 85 to 94%

same assay, conditions: post-emergence, 336 h, STEME: common chickweed (Stellaria media), 140 g ai/ha, 14 days after application, read-out: Visual Growth Reduction (%) 14 Days After Application, STEME

Row | Compound | pest or weed control at 140 g/ha
27 | COC(=O)c1nc(-c2ccc(S(C)(=O)=O)cc2)c(F)cc1Cl [F169, Methyl 3-chloro-5-fluoro-6-(4-(methylsulfonyl)phenyl)picolinate] | 0 to 29%
28 | O=C(O)c1nc(-c2ccc(SC(F)(F)F)cc2Cl)c(F)cc1Cl [F131, 3-Chloro-6-(2-chloro-4-((trifluoromethyl)thio)phenyl)-5-fluoropicolinic acid] | 0 to 29%

same assay, conditions: post-emergence, 336 h, TRZAS: wheat, spring (Triticum aestivum), 140 g ai/ha, 14 days after application, read-out: Visual Growth Reduction (%) 14 Days After Application, TRZAS

Row | Compound | pest or weed control at 140 g/ha
29 | COC(=O)c1nc(-c2ccc(S(C)(=O)=O)cc2)c(F)cc1Cl [F169, Methyl 3-chloro-5-fluoro-6-(4-(methylsulfonyl)phenyl)picolinate] | 0 to 29%
30 | O=C(O)c1nc(-c2ccc(SC(F)(F)F)cc2Cl)c(F)cc1Cl [F131, 3-Chloro-6-(2-chloro-4-((trifluoromethyl)thio)phenyl)-5-fluoropicolinic acid] | 60 to 74%

Reference: patent US20230017045A1, “PYRIDINE AND PYRIMIDINE CARBOXYLATE HERBICIDES AND METHODS OF USE THEREOF” (Dow AgroSciences LLC, priority 2017, published 2023)
